Consider ten compounds from patent publication US20260092071A1, “COMPOUNDS AND COMPOSITIONS AS SMARCA2/4 DEGRADERS AND USES THEREOF” (REGENTS OF THE UNIVERSITY OF MICHIGAN, priority 2022, published 2026).

Like-named read-outs stand apart in the source and are kept apart here.

The DC50 is the concentration at which degradation of the target reaches its halfway point. The Dmax is the largest share of the target that was removed.

One test has as its target SMARCA4 (Homo sapiens, UniProt P51532). Description: HiBiT assay for protein degradation, Hela SMARCA4-HiBiT cells (A series). Format: cell-based. Further details: fuse HiBiT to the carboxy terminus of SMARCA2 (Promega CS302365) or SMARCA4 (Promega CS3023225); host or cells: HeLa (CRISPR/Cas9 HiBiT knock-in). Conditions: for DC50: read-out: SMARC A4 Hela HiBit DC50; for Dmax: read-out: SMARC A4 Hela HiBit Dmax(%). In a few lines:
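HeLa cells engineered by CRISPR/Cas9 to carry a HiBiT tag fused to the C-terminus of SMARCA4 (Promega CS3023225) were grown in DMEM supplemented with FBS and penicillin-streptomycin. After compound exposure, remaining SMARCA4 protein was quantified using the Nano-Glo® HiBiT Lytic Detection Assay (Promega N3050), and curves were fitted in GraphPad Prism.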
Background: HiBiT is a short tag that completes a luciferase, so light tracks the accessible tagged protein.

A further test has as its target SMARCA2 (Homo sapiens, UniProt P51531). Description: HiBiT assay for protein degradation, Hela SMARCA2-HiBiT cells (A series).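 As to SMARC A2 Hela HiBit Dmax (%): 24 h compound treatment.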 Conditions: for DC50: read-out: SMARC A2 Hela HiBit DC50; for Dmax: read-out: SMARC A2 Hela HiBit Dmax (%). Set-up: Hela cells were genetically modified via CRISPR/Cas9 to fuse HiBiT to the carboxy terminus of SMARCA2; host or cells: HeLa (CRISPR/Cas9 HiBiT knock-in). Format: cell-based. In a few lines: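 HeLa cells engineered by CRISPR/Cas9 to carry a HiBiT tag fused to the C-terminus of SMARCA2 (Promega CS302365) were grown in DMEM supplemented with FBS and penicillin-streptomycin. After treatment, remaining SMARCA2 protein was quantified with the Nano-Glo® HiBiT Lytic Detection Assay (Promega N3050), and curves were fitted in GraphPad Prism.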

The mark [1] stands for this setting: Hela SMARCA4-HiBiT cells, 24 hours treatment.
Setting [2] is: Hela SMARCA2-HiBiT cells, 24 hours treatment.

SMARCA2, sequence (P51531 whole entry, the tested form may be a part): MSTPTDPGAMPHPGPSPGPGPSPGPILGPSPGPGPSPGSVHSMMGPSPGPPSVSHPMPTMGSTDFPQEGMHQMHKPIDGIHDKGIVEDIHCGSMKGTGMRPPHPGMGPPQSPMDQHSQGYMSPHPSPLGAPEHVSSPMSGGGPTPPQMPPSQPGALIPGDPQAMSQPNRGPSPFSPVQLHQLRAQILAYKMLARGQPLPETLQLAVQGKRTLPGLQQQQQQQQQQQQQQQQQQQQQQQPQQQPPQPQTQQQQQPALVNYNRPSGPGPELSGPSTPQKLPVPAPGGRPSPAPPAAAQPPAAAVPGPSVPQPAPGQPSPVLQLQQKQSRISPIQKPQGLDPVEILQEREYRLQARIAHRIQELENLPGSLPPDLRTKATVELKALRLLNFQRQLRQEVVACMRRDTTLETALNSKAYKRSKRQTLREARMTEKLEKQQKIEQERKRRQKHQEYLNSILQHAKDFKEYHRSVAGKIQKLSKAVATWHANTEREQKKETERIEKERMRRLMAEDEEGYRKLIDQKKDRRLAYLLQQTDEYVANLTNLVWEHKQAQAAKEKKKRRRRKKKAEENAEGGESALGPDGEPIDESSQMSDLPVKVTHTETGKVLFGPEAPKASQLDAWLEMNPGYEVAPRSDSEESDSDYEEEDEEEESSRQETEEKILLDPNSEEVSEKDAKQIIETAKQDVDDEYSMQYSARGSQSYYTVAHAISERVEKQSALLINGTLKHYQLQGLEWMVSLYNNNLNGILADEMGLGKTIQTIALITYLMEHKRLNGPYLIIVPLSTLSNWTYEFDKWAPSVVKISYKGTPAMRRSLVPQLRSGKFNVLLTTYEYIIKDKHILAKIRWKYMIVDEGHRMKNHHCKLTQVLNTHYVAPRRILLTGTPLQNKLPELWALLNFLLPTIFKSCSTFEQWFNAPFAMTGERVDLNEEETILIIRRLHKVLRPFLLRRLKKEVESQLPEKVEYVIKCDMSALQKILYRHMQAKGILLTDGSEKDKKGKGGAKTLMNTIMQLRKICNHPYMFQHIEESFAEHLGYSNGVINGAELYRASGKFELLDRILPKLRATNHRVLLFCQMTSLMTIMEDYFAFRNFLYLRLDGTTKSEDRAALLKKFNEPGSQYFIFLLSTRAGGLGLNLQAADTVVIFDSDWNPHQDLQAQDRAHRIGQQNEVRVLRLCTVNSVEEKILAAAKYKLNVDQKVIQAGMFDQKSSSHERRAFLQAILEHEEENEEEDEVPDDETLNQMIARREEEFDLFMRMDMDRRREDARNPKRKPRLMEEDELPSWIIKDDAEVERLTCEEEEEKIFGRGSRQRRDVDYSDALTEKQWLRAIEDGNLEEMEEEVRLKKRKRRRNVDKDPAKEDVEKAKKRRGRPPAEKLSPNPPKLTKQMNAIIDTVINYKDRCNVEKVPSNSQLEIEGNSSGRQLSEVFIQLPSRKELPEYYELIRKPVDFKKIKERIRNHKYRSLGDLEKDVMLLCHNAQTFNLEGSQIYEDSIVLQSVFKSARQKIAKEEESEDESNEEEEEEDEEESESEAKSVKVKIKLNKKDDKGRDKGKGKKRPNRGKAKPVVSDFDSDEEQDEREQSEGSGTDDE
SMARCA4, sequence (P51532 whole entry, the tested form may be a part): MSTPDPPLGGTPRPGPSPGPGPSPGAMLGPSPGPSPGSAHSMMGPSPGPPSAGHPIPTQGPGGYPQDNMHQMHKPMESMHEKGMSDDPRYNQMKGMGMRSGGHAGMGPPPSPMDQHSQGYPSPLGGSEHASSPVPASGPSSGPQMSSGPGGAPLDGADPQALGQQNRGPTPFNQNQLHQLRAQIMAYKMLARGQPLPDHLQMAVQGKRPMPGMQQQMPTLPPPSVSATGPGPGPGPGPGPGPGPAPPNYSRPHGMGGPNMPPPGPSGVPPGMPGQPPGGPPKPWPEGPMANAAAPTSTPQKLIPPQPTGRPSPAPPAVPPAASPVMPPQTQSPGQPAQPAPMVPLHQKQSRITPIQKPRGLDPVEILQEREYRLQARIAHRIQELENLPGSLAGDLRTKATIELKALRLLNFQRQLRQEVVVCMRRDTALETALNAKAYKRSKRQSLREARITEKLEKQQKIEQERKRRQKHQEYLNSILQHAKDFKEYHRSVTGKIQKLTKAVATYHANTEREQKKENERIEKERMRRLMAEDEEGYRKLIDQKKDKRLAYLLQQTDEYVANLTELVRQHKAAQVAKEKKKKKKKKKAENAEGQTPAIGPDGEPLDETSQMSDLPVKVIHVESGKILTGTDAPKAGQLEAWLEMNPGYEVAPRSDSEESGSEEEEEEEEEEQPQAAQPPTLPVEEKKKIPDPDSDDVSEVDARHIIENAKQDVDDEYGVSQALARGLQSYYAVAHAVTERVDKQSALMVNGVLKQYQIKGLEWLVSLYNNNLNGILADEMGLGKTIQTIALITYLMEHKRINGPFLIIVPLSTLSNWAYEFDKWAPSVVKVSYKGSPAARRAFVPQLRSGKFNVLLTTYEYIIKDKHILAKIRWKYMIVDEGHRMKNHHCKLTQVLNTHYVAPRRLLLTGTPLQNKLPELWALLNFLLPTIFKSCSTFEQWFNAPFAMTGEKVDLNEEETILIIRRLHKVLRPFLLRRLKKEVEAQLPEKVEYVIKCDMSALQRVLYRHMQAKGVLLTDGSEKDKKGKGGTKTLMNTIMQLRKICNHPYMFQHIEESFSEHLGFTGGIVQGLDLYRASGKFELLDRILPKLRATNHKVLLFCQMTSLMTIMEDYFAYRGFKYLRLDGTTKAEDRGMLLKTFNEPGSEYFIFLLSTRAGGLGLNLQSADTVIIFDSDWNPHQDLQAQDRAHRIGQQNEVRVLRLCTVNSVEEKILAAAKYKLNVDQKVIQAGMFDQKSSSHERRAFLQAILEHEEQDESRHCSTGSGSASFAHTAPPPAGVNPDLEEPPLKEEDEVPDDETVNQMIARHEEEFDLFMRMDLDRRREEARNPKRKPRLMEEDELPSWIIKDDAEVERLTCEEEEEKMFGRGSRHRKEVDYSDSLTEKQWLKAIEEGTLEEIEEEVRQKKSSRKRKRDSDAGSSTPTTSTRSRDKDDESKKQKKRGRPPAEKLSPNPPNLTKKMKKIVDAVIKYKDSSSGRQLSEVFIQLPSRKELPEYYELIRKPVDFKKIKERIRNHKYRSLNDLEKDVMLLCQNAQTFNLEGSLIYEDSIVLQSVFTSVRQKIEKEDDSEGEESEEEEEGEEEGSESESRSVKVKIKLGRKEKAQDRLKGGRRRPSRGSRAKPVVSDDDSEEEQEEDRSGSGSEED

With `Cc1ncsc1-c1ccc([C@H](C)NC(=O)[C@@H]2C[C@@H](O)CN2C(=O)[C@@H](n2cc(CCCCCN3CCC(c4ccc5c(c4)C4(CCCCC4)c4nc(=O)c6c(Br)cccc6n4-5)CC3)nn2)C(C)(C)C)cc1` [Compound A57, (2S,4R)-1-((S)-2-(4-(5-(4-(4′-bromo-5′-oxo-5′H-spiro[cyclohexane-1,7′-indolo[1,2-a]quinazolin]-9′-yl)piperidin-1-yl)pentyl)-1H-1,2,3-triazol-1-yl)-3,3-dimethylbutanoyl)-4-hydroxy-N—((S)-1-(4-(4-methylthiazol-5-yl)phenyl)ethyl)pyrrolidine-2-carboxamide], on SMARCA4 (setting [1]), the DC50 is less than 100 nM and the Dmax was more than 90%. In addition, on SMARCA2 (setting [2]), the DC50 was less than 100 nM and the Dmax is more than 90%.

As for `Cc1ncsc1-c1ccc([C@H](C)NC(=O)[C@@H]2C[C@@H](O)CN2C(=O)[C@@H](n2cc(CCCCCCN3CCC(c4ccc5c(c4)C4(CCCCC4)c4nc(=O)c6c(Br)cccc6n4-5)CC3)nn2)C(C)(C)C)cc1` [Compound A58, (2S,4R)-1-((S)-2-(4-(6-(4-(4′-bromo-5′-oxo-5′H-spiro[cyclohexane-1,7′-indolo[1,2-a]quinazolin]-9′-yl)piperidin-1-yl)hexyl)-1H-1,2,3-triazol-1-yl)-3,3-dimethylbutanoyl)-4-hydroxy-N—((S)-1-(4-(4-methylthiazol-5-yl)phenyl)ethyl)pyrrolidine-2-carboxamide], at SMARCA4 (setting [1]), the DC50 was less than 100 nM and the Dmax was more than 90%. Further, on SMARCA2 (setting [2]), the DC50 is less than 100 nM and the Dmax is more than 90%.

With `Cc1ncsc1-c1ccc([C@@H](C)NC(=O)[C@@H]2C[C@@H](O)CN2C(=O)C(c2cc(N3CCC(CN4CCC(c5ccc6c(c5)C5(CCCCC5)c5nc(=O)c7c(Br)cccc7n5-6)CC4)CC3)no2)C(C)C)cc1` (stereo partly drawn) [Compound A59, (2S,4R)-1-(2-(3-(4-((4-(4′-bromo-5′-oxo-5′H-spiro[cyclohexane-1,7′-indolo[1,2-a]quinazolin]-9′-yl)piperidin-1-yl)methyl)piperidin-1-yl)isoxazol-5-yl)-3-methylbutanoyl)-4-hydroxy-N—((R)-1-(4-(4-methylthiazol-5-yl)phenyl)ethyl)pyrrolidine-2-carboxamide], at SMARCA4 (setting [1]), the DC50 was more than 1000 nM and the Dmax is less than 50%. Besides, on SMARCA2 (setting [2]), the DC50 is less than 100 nM and the Dmax was in the range of 70 to 90%.

In the case of `Cc1ncsc1-c1ccc([C@H](C)NC(=O)[C@@H]2C[C@@H](O)CN2C(=O)[C@@H](n2cc([C@H]3CC[C@H](CN4CCC(c5ccc6c(c5)C5(CCCCC5)c5nc(=O)c7c(Br)cccc7n5-6)CC4)CC3)nn2)C(C)(C)C)cc1` [Compound A60, (2S,4R)-1-((S)-2-(4-((1r,4S)-4-((4-(4′-bromo-5′-oxo-5′H-spiro[cyclohexane-1,7′-indolo[1,2-a]quinazolin]-9′-yl)piperidin-1-yl)methyl)cyclohexyl)-1H-1,2,3-triazol-1-yl)-3,3-dimethylbutanoyl)-4-hydroxy-N—((S)-1-(4-(4-methylthiazol-5-yl)phenyl)ethyl)pyrrolidine-2-carboxamide], the DC50 at SMARCA4 is less than 100 nM. At SMARCA2, the “SMARC A2 Hela HiBit Dmax (%)” value is recorded as “A (key: A (>90% degradation); B (70-90% degradation); C (50-69% degradation); D (<50% degradation))” and the DC50 is less than 100 nM.

`Cc1ncsc1-c1ccc([C@H](C)NC(=O)[C@@H]2C[C@@H](O)CN2C(=O)[C@@H](n2cc([C@H]3C[C@H](CN4CCC(c5ccc6c(c5)C5(CCCCC5)c5nc(=O)c7c(Br)cccc7n5-6)CC4)C3)nn2)C(C)(C)C)cc1` [Compound A61, (2S,4R)-1-((S)-2-(4-((1r,3S)-3-((4-(4′-bromo-5′-oxo-5′H-spiro[cyclohexane-1,7′-indolo[1,2-a]quinazolin]-9′-yl)piperidin-1-yl)methyl)cyclobutyl)-1H-1,2,3-triazol-1-yl)-3,3-dimethylbutanoyl)-4-hydroxy-N—((S)-1-(4-(4-methylthiazol-5-yl)phenyl)ethyl)pyrrolidine-2-carboxamide]: the “SMARC A4 Hela HiBit Dmax(%)” value at SMARCA4 (setting [1]) was “A (A (>90% degradation))”. Further, the DC50 at SMARCA4 and on SMARCA2 was less than 100 nM in each case. Further, the “SMARC A2 Hela HiBit Dmax (%)” value at SMARCA2 (setting [2]) is on record as “A (A (>90% degradation))”.

As to `Cc1ncsc1-c1ccc([C@H](C)NC(=O)[C@@H]2C[C@@H](O)CN2C(=O)[C@@H](n2cc([C@H]3CC[C@H](CN4CCC(c5ccc6c(c5)-n5c(nc(=O)c7c(Br)cccc75)C65CCCCC5)CC4)CC3)nn2)C(C)(C)C)cc1` [Compound A62, (2S,4R)-1-((S)-2-(4-((1r,4S)-4-((4-(4′-bromo-5′-oxo-5′H-spiro[cyclohexane-1,7′-indolo[1,2-a]quinazolin]-10′-yl)piperidin-1-yl)methyl)cyclohexyl)-1H-1,2,3-triazol-1-yl)-3,3-dimethylbutanoyl)-4-hydroxy-N—((S)-1-(4-(4-methylthiazol-5-yl)phenyl)ethyl)pyrrolidine-2-carboxamide], the Dmax at SMARCA4 (HeLa) is 70 to 90%; at SMARCA2 (HeLa), more than 90%. For the same compound, the DC50 at SMARCA4 and at SMARCA2 was less than 100 nM in each case.

Take `Cc1ncsc1-c1ccc([C@H](C)NC(=O)[C@@H]2C[C@@H](O)CN2C(=O)[C@@H](n2cc([C@H]3C[C@H](CN4CCC(c5ccc6c(c5)-n5c(nc(=O)c7c(Br)cccc75)C65CCCCC5)CC4)C3)nn2)C(C)(C)C)cc1` [Compound A63, (2S,4R)-1-((S)-2-(4-((1r,3S)-3-((4-(4′-bromo-5′-oxo-5′H-spiro[cyclohexane-1,7′-indolo[1,2-a]quinazolin]-10′-yl)piperidin-1-yl)methyl)cyclobutyl)-1H-1,2,3-triazol-1-yl)-3,3-dimethylbutanoyl)-4-hydroxy-N—((S)-1-(4-(4-methylthiazol-5-yl)phenyl)ethyl)pyrrolidine-2-carboxamide]: the “SMARC A4 Hela HiBit Dmax(%)” value at SMARCA4 (setting [1]) is “B (B (70-90% degradation))”. Further, the DC50 on SMARCA4 and at SMARCA2 was less than 100 nM each time. Also, the “SMARC A2 Hela HiBit Dmax (%)” value at SMARCA2 (setting [2]) is “A (A (>90% degradation))”.

Consider `Cc1ncsc1-c1ccc([C@H](C)NC(=O)[C@@H]2C[C@@H](O)CN2C(=O)[C@@H](n2cc(C3(CN4CCC(c5ccc6c(c5)-n5c(nc(=O)c7c(Br)cccc75)C65CCCCC5)CC4)CC3)nn2)C(C)(C)C)cc1` [Compound A64, (2S,4R)-1-((S)-2-(4-(1-((4-(4′-bromo-5′-oxo-5′H-spiro[cyclohexane-1,7′-indolo[1,2-a]quinazolin]-10′-yl)piperidin-1-yl)methyl)cyclopropyl)-1H-1,2,3-triazol-1-yl)-3,3-dimethylbutanoyl)-4-hydroxy-N—((S)-1-(4-(4-methylthiazol-5-yl)phenyl)ethyl)pyrrolidine-2-carboxamide], for which, at SMARCA4 (setting [1]), the “SMARC A4 Hela HiBit Dmax(%)” value is recorded as “B (B (70-90% degradation))”. The DC50 is 100 to 500 nM on SMARCA4 and less than 100 nM at SMARCA2. Moreover, the “SMARC A2 Hela HiBit Dmax (%)” value at SMARCA2 (setting [2]) was “A (A (>90% degradation))”.

`Cc1ncsc1-c1ccc([C@H](C)NC(=O)[C@@H]2C[C@@H](O)CN2C(=O)[C@@H](n2cc(C3(CCN4CCC(c5ccc6c(c5)-n5c(nc(=O)c7c(Br)cccc75)C65CCCCC5)CC4)CC3)nn2)C(C)(C)C)cc1` [Compound A65, (2S,4R)-1-((S)-2-(4-(1-(2-(4-(4′-bromo-5′-oxo-5′H-spiro[cyclohexane-1,7′-indolo[1,2-a]quinazolin]-10′-yl)piperidin-1-yl)ethyl)cyclopropyl)-1H-1,2,3-triazol-1-yl)-3,3-dimethylbutanoyl)-4-hydroxy-N—((S)-1-(4-(4-methylthiazol-5-yl)phenyl)ethyl)pyrrolidine-2-carboxamide]: at SMARCA4 (setting [1]), the “SMARC A4 Hela HiBit Dmax(%)” value was “A (A (>90% degradation))”. Moreover, the DC50 on SMARCA4 and at SMARCA2 was less than 100 nM in each case. The “SMARC A2 Hela HiBit Dmax (%)” value at SMARCA2 (setting [2]) is “A (A (>90% degradation))”.

For the compound `Cc1ncsc1-c1ccc([C@H](C)NC(=O)[C@@H]2C[C@@H](O)CN2C(=O)[C@@H](n2cc(-c3ccc(CN4CCC(c5ccc6c(c5)-n5c(nc(=O)c7c(Br)cccc75)C65CCCCC5)CC4)nc3)nn2)C(C)(C)C)cc1` [Compound A66], the “SMARC A4 Hela HiBit Dmax(%)” value on SMARCA4 (setting [1]) was “D (D (<50% degradation))”. Moreover, the DC50 at SMARCA4 and at SMARCA2 was more than 1000 nM in each case. Also, on SMARCA2 (setting [2]), the “SMARC A2 Hela HiBit Dmax (%)” value is recorded as “C (C (50-69% degradation))”.
